Experimental data published in ChEMBL document CHEMBL5331066, “Structure-guided design of novel HEPT analogs with enhanced potency and safety: From Isopropyl-HEPTs to Cyclopropyl-HEPTs” (Eur J Med Chem, 2023).

Key:
[1] = test system: Human immunodeficiency virus 1; experiment: Antiviral activity against HIV1 harboring Y181C mutant infected in human MT4 cells assessed as protection against virus-induced cytopathicity; type: functional, organism-based; conditions: Human immunodeficiency virus 1, MT4
[2] = test system: Human immunodeficiency virus 1; experiment: Antiviral activity against HIV1 harboring Y188L mutant infected in human MT4 cells assessed as protection against virus-induced cytopathicity; type: functional, organism-based; conditions: Human immunodeficiency virus 1, MT4
Cytochrome P450 3A4 [3] = target: T1, Cytochrome P450 3A4 (Homo sapiens, UniProt P08684); experiment: Inhibition of CYP3A4T (unknown origin); type: ADME
T1 sequence (P08684 whole entry): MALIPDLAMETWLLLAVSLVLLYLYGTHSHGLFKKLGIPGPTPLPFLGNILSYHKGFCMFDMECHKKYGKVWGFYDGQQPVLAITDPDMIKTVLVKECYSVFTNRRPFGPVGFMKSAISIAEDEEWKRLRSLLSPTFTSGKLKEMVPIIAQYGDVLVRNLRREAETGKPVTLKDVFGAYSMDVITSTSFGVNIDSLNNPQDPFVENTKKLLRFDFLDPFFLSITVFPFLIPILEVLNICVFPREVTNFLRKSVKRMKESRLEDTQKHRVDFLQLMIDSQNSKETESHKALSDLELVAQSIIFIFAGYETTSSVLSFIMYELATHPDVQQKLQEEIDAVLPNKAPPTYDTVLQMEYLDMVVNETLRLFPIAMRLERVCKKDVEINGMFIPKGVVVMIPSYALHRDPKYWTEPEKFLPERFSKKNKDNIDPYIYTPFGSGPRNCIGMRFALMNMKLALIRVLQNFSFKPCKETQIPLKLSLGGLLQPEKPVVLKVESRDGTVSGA

[4] = Acute toxicity in mouse assessed as pathological changes in lung at 1000 mg/kg,IG administrated for 2 weeks by hematoxylin-eosin staining based analysis; type: organism-based; conditions: in vivo, po, 336 h
[5] = Clearance in Sprague-Dawley rat at 1 mg/kg,iv; type: ADME, organism-based; conditions: in vivo
[6] = Tmax in Sprague-Dawley rat at 10 mg/kg,po; type: ADME, organism-based; conditions: in vivo
Cytochrome P450 2C19 = Cytochrome P450 2C19 (Homo sapiens, UniProt P33261); experiment: Inhibition of CYP2C19 (unknown origin); type: ADME
Chain of Cytochrome P450 2C19 (P33261 whole entry): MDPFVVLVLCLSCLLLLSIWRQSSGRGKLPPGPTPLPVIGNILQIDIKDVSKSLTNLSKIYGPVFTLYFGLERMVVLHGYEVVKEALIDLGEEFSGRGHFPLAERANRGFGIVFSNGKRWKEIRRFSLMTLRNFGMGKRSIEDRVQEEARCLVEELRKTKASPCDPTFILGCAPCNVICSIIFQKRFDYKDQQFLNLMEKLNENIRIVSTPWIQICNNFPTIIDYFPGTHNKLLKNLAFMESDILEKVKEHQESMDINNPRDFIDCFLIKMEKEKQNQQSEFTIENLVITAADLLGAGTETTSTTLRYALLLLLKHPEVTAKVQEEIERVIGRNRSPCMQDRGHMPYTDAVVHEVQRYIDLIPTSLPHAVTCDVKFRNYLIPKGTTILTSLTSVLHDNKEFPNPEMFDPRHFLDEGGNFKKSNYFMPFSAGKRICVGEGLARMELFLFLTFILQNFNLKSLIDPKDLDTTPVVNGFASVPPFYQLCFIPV

[7] = AUC (0-t) in Sprague-Dawley rat at 1 mg/kg,iv; type: ADME, organism-based; design: dose 1 mg/kg, route iv; conditions: in vivo
[8] = Acute toxicity in mouse assessed as pathological changes in brain at 1000 mg/kg,IG administrated for 2 weeks by hematoxylin-eosin staining based analysis; type: organism-based; conditions: in vivo, po, 336 h
[9] = Half life in Sprague-Dawley rat at 1 mg/kg,iv; type: ADME, organism-based; conditions: in vivo
[10] = Acute toxicity in mouse assessed as pathological changes in spleen at 1000 mg/kg,IG administrated for 2 weeks by hematoxylin-eosin staining based analysis; type: organism-based; conditions: in vivo, po, 336 h
[11] = AUC (0-t) in Sprague-Dawley rat at 10 mg/kg,po; type: ADME, organism-based; design: dose 10 mg/kg, route po; conditions: in vivo
[12] = test system: Human immunodeficiency virus 1; experiment: Antiviral activity against HIV1 harboring E138K mutant infected in human MT4 cells assessed as protection against virus-induced cytopathicity; type: functional, organism-based; conditions: Human immunodeficiency virus 1, MT4
[13] = Acute toxicity in mouse assessed as death at 1000 mg/kg,IG administrated for 2 weeks; type: organism-based; conditions: in vivo, po, 336 h
Cytochrome P450 2C9 = Cytochrome P450 2C9 (Homo sapiens, UniProt P11712); experiment: Inhibition of CYP2C9 (unknown origin); type: ADME
Chain of Cytochrome P450 2C9 (P11712 whole entry): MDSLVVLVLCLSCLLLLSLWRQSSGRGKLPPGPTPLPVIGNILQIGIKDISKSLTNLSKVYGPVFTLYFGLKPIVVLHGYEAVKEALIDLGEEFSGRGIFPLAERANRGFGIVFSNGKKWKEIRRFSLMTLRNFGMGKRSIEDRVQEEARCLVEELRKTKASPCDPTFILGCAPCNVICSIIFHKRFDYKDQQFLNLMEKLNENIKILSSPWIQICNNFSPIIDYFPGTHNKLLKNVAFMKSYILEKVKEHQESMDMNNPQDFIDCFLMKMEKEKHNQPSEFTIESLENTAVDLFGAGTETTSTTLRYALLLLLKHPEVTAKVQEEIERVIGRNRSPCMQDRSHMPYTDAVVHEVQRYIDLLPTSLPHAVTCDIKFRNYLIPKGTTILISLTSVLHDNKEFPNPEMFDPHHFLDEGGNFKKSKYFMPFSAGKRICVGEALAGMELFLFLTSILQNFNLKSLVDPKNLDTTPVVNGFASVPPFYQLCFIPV

[14] = Cytotoxicity against human MT4 cells assessed as reduction in cell viability; type: toxicity, cell-based
[15] = test system: Human immunodeficiency virus 1; experiment: Antiviral activity against HIV1 harboring K103 N mutant infected in human MT4 cells assessed as protection against virus-induced cytopathicity; type: functional, organism-based; conditions: Human immunodeficiency virus 1, MT4
[16] = test system: Human immunodeficiency virus 1; experiment: Antiviral activity against wild type HIV1 IIIB infected in human MT4 cells assessed as protection against virus-induced cytopathicity; type: functional, organism-based; conditions: Human immunodeficiency virus 1, IIIB
[17] = Acute toxicity in mouse assessed as increase in body weight at 1000 mg/kg,IG administrated for 2 weeks; type: organism-based; conditions: in vivo, po, 336 h
[18] = Selectivity index, ratio of CC50 for cytotoxicity against human MT4 cells to EC50 for antiviral activity against wild type HIV1 IIIB infected in human MT4 cells; type: toxicity, cell-based; conditions: read-out: Ratio CC50/EC50
[19] = target: Voltage-gated inwardly rectifying potassium channel KCNH2 (Homo sapiens, UniProt Q12809); experiment: Inhibition of human ERG potassium channel expressed in CHO cells by manual patch clamp method; type: toxicity, cell-based
Chain of Voltage-gated inwardly rectifying potassium channel KCNH2 (Q12809 whole entry): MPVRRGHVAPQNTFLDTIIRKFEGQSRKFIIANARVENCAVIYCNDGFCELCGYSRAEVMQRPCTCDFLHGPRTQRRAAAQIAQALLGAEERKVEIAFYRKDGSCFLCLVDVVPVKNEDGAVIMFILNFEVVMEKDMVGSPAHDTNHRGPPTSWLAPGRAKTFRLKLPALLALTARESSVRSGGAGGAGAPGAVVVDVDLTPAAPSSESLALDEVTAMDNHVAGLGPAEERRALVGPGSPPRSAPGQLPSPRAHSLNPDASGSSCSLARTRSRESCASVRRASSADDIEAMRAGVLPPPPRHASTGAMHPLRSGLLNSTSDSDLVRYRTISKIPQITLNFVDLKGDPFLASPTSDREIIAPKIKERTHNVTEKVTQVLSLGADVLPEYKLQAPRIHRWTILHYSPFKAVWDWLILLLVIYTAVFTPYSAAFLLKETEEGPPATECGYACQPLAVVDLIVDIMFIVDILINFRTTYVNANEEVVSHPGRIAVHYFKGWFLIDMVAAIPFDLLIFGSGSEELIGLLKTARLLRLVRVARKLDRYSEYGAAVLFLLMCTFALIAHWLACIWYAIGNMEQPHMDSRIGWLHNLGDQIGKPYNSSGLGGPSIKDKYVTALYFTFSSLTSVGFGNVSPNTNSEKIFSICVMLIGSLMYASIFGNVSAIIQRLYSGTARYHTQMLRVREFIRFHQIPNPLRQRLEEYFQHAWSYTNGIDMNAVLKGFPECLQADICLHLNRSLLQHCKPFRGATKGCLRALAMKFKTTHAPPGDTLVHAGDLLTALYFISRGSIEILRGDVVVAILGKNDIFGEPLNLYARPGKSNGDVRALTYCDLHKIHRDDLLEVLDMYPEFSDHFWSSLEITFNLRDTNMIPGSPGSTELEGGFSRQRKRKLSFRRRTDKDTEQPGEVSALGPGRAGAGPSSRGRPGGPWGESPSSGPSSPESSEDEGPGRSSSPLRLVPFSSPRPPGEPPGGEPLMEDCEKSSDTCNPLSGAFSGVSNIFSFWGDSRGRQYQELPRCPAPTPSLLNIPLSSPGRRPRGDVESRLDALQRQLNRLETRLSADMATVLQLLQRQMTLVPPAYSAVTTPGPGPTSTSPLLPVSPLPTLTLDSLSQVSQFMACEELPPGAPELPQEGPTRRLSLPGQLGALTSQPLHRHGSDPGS

[20] = target: Human immunodeficiency virus type 1 reverse transcriptase (Human immunodeficiency virus 1, UniProt Q72547); experiment: Inhibition of wild type HIV-1 reverse transcriptase assessed as inhibition of biotin deoxyuridine triphosphate incorporation into […]
[21] = Half life in Sprague-Dawley rat at 10 mg/kg,po; type: ADME, organism-based; conditions: in vivo
Cytochrome P450 3A4 [22] = target: T1, Cytochrome P450 3A4; experiment: Inhibition of CYP3A4M (unknown origin); type: ADME
[23] = test system: Human immunodeficiency virus 1; experiment: Antiviral activity against HIV1 harboring L100I mutant infected in human MT4 cells assessed as protection against virus-induced cytopathicity; type: functional, organism-based; conditions: Human immunodeficiency virus 1, MT4
[24] = Oral bioavailability in Sprague-Dawley rat at 10 mg/kg; type: ADME, organism-based; conditions: in vivo
[25] = Acute toxicity in mouse assessed as pathological changes in kidney at 1000 mg/kg,IG administrated for 2 weeks by hematoxylin-eosin staining based analysis; type: organism-based; conditions: in vivo, po, 336 h
[26] = Cmax in Sprague-Dawley rat at 10 mg/kg,po; type: ADME, organism-based; design: dose 10 mg/kg, route po; conditions: in vivo
[27] = Tmax in Sprague-Dawley rat at 1 mg/kg,iv; type: ADME, organism-based; conditions: in vivo
[28] = AUC (0-infinity) in Sprague-Dawley rat at 1 mg/kg,iv; type: ADME, organism-based; design: dose 1 mg/kg, route iv; conditions: in vivo
Cytochrome P450 2D6 = Cytochrome P450 2D6 (Homo sapiens, UniProt P10635); experiment: Inhibition of CYP2D6 (unknown origin); type: ADME
Chain of Cytochrome P450 2D6 (P10635 whole entry): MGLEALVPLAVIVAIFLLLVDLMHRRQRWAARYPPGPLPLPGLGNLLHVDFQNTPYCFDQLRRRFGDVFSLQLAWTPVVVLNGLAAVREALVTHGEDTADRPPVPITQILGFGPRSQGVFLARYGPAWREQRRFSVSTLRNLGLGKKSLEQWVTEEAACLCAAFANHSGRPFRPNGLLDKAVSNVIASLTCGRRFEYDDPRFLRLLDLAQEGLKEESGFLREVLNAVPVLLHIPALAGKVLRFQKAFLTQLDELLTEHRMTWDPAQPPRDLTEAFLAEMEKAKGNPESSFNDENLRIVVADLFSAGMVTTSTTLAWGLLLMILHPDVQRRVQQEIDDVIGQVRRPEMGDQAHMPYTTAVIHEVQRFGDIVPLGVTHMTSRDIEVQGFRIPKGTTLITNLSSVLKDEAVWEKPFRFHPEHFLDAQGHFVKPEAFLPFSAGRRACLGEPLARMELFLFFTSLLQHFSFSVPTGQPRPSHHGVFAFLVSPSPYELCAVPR

[29] = AUC (0-infinity) in Sprague-Dawley rat at 10 mg/kg,po; type: ADME, organism-based; design: dose 10 mg/kg, route po; conditions: in vivo
[30] = Acute toxicity in mouse assessed as pathological changes in liver at 1000 mg/kg,IG administrated for 2 weeks by hematoxylin-eosin staining based analysis; type: organism-based; conditions: in vivo, po, 336 h
[31] = Acute toxicity in mouse assessed as behavioral abnormalities at 1000 mg/kg,IG administrated for 2 weeks; type: organism-based; conditions: in vivo, po, 336 h
[32] = Cmax in Sprague-Dawley rat at 1 mg/kg,iv; type: ADME, organism-based; design: dose 1 mg/kg, route iv; conditions: in vivo
[33] = Acute toxicity in mouse assessed as pathological changes in heart at 1000 mg/kg,IG administrated for 2 weeks by hematoxylin-eosin staining based analysis; type: organism-based; conditions: in vivo, po, 336 h
[34] = Apparent volume of distribution in Sprague-Dawley rat at 1 mg/kg,iv; type: ADME, organism-based; conditions: in vivo, read-out: Vz
Cytochrome P450 1A2 = target: T2, Cytochrome P450 1A2 (Homo sapiens, UniProt P05177); experiment: Inhibition of CYP1A2 (unknown origin); type: ADME
T2 sequence (P05177 whole entry): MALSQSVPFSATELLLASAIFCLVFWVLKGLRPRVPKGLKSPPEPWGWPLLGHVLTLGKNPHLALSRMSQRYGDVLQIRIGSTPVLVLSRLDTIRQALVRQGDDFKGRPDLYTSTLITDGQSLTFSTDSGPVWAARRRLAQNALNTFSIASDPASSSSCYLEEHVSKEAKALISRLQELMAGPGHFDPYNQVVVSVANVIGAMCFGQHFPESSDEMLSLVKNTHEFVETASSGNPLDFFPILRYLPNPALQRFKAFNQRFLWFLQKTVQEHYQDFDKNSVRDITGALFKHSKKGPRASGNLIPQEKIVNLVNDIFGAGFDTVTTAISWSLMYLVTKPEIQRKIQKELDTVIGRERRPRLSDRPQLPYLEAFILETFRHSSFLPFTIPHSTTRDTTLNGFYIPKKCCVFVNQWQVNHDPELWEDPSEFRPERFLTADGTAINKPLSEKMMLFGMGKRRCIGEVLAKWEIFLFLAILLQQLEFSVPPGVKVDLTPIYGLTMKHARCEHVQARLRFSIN

Molecule O=c1[nH]c(=O)n(COCc2ccccc2)c(Sc2cc(F)ccc2F)c1C1CC1 has an EC50 [1] of 1.85 µM, an EC50 [2] greater than 39.2 µM and an IC50 (Cytochrome P450 3A4 [3]) greater than 50 µM. For the same molecule, the Activity [4] was “Non-Toxic”, the clearance [5] was 15.6 mL/min/kg and the Tmax [6] was 35 min. For the same molecule, the IC50 (Cytochrome P450 2C19) was 30.3 µM, the AUC(0-t) [7] was 1100 ng·h/mL and the Activity [8] was “Non-Toxic”. The half-life [9] was 30.8 min, the Activity [10] was “Non-Toxic” and the AUC(0-t) [11] was 8660 ng·h/mL. For the same molecule, the EC50 [12] was 0.09 µM, the Activity [13] was “Non-Toxic” and the IC50 (Cytochrome P450 2C9) was 27.6 µM. For the same molecule, the CC50 [14] was 39.2 µM, the EC50 [15] was 2.64 µM and the EC50 [16] was 0.017 µM. The Activity [17] was “Non-Toxic”, the selectivity ratio [18] was 2330 and the IC50 [19] was greater than 40 µM. For the same molecule, the IC50 [20] was 0.03 µM, the half-life [21] was 151 min and the IC50 (Cytochrome P450 3A4 [22]) was greater than 50 µM. For the same molecule, the EC50 [23] was 0.38 µM, the bioavailability [24] was 86.7% and the Activity [25] was “Non-Toxic”. It also gave a Cmax [26] of 3520 ng/mL, a Tmax [27] of 4.98 min and an AUC(0-inf) [28] of 1100 ng·h/mL. The IC50 (Cytochrome P450 2D6) was greater than 50 µM, the AUC(0-inf) [29] was 9560 ng·h/mL and the Activity [30] was “Non-Toxic”. For the same molecule, the Activity [31] was “Non-Toxic”, the Cmax [32] was 2030 ng/mL and the Activity [33] was “Non-Toxic”. For the same molecule, the Vd [34] was 0.698 L/kg and the IC50 (Cytochrome P450 1A2) was greater than 50 µM.
